In patent publication US20220153751A1, “BIFUNCTIONAL COMPOUNDS” (BioTheryX, Inc., priority 2018, published 2022):

Key:
Assay type in all cases: cell-based
GSPT1 = target: T1, GSPT1 (Homo sapiens, UniProt P15170+Q96SW2); assay: GSPT1 degradation assay (Western blot, MV-4-11 cells); details: MV4-11, 6-8 h
T1 construct: Whole cell extracts were prepared using RIPA buffer; endogenous in cells; host or cells: MV-4-11
Method: (§1) MV-4-11 cells were grown in RPMI 1640 media supplemented with 10% fetal bovine serum, streptomycin and penicillin.
(§2) Cells were cultured at approximately 10^6 cells per mL and incubated in DMSO or the indicated compound for 6-8 h. Whole cell extracts were prepared using RIPA buffer according to manufacturer's protocol (Pierce). Briefly, 3×10^6 cells were washed once in PBS, the cell pellets were resuspended in RIPA buffer and allowed to incubate for 15 minutes on ice. Cells debris was removed by centrifugation and the cleared whole cell lysates were transferred to new tubes for further analysis.
(§3) For Western blot analysis, whole cell protein extracts were separated on 4-12% SDS-polyacrylamide gels, transferred to nitrocellulose and probed with the indicated primary antibodies. Membranes were subsequently washed and probed with the appropriate IRDye secondary antibodies (LI-COR). The signal was detected using the Odyssey Imaging System (LI-COR).
(§4) The following antibodies were used in these studies: Anti-eRF3/GSPT1: Abcam, ab126090 (Cambridge, Mass.); Anti-Ikaros: Abcam, ab191394 (Cambridge, Mass.); Anti-CK1α: Abcam, ab108296 (Cambridge, Mass.); Anti-CDK9: Santa Cruz Biotechnology, sc13130 (Dallas, Tex.); Anti-CDK16: Millipore Sigma, HPA001366 (St. Louis, Mo.); 3-actin (8H10comD10) mouse monoclonal antibody: Cell Signaling Technology, #3700 (Danvers, Mass.); IRDye 680RD Goat anti-rabbit antibody: LI-COR, 926-68071 (Lincoln, Nebr.); IRDye 800CW Goat anti-mouse antibody: LI-COR, 926-32210 (Lincoln, Nebr.).
(§5) CDK9 activities are shown in Table 4 at two different concentrations. CDK16 activities are shown in Table 5 at two different concentrations. In each of Tables 1-5, the % degradation values are reported as “A”, “B”, “C”, or “D”. “A” represents a % degradation value of less than 25% (value <25%). “B” represents a % degradation value of equal to or more than 25% and less than 50% (25%≤value<50%). “C” represents a % degradation value of equal to or more than 50% and less than 75% (50%≤value<75%). “D” represents a % degradation value of equal to or more than 75% (value ≥75%).

MOLM-13 cells = assay: MOLM-13 cell viability assay (CellTiter-Glo); details: Homo sapiens, MOLM-13, 72 h, 3 days, read-out: MOLM-13 Cell Viability % DMSO at 1 μM
Method: MOLM-13 cells were cultured in RPMI 1640 media supplemented with 10% fetal bovine serum, streptomycin and penicillin, and were plated in walled 96-well plates at 2500 cells/well. Cells were incubated in DMSO (control) or the indicated compound for 3 days at 37° C. and 5% CO2. Following the incubation period, 100 μL of CellTiterGlow (CTG) reagent (CellTiter-Glo® Luminescent Cell Viability Assay, Promega (Madison, Wis.)) was added to each well. Following a 10 minutes incubation with shaking, luminescence was measured using the EnVision Multimode plate reader.
The MOLM-13 cell viability values as % DMSO are reported as “A”, “B”, “C”, or “D”. “A” represents a % viability value of less than 50% (value <50%). “B” represents a % viability value of equal to or more than 50% and less than 70% (50%≤value<70%). “C” represents a % viability value of equal to or more than 70% and less than 90% (70%≤value<90%). “D” represents a % viability value of equal or more than 90% (value ≥90%).

IL-1β = IL-1β inhibition assay, LPS-induced PBMCs / CD14+ monocytes (Meso Scale); details: 1 h pretreatment, 100 ng/mL LPS 18-24 h
Method: (§6) Either frozen primary blood mononuclear cells (PBMCs) or frozen CD14+ mobilized peripheral blood monocytes were purchased from AllCells (PB003F, Normal Peripheral Blood MNC (Alameda, Calif.)). Cells were quick thawed, washed 1-time with RPMI-1640 (10% FBS/1% Pen-Strep) and plated in 96 well plates at 200,000 cells per well. Cells were pretreated with DMSO only or with the indicated compound for 1 h and then induced with 100 ng/mL lipopolysaccharide (LPS) for 18-24 h. The supernatant was analyzed for IL-1β, IL-6, and TNFα, using Meso Scale assay according to manufacturer's protocol. The negative control wells were treated with DMSO.
(§7) In Table 6, the % inhibition values are reported as “A”, “B”, “C”, or “D”. “A” represents a % inhibition value of less than 50% (value <50%). “B” represents a % inhibition value of equal to or more than 50% and less than 70% (50%≤value<70%). “C” represents a % inhibition value of equal to or more than 70% and less than 90% (70%≤value<90%). “D” represents a % inhibition value of equal or more than 90% (value ≥90%). In Table 7, the fold-change values are reported as “A”, “B”, “C”, or “D”. “A” represents a fold-change value of equal to or less than 0.1 (value ≤0.1). “B” represents a fold-change value of more than 0.1 and equal to or less than 0.5 (0.1<value≤0.5). “C” represents a fold-change value of more than 0.5 and equal to or less than 1 (0.5<value≤1). “D” represents a fold-change value of more than 1 (value >1).

IL-6 = IL-6 inhibition assay, LPS-induced PBMCs / CD14+ monocytes (Meso Scale); details: 1 h pretreatment, 100 ng/mL LPS 18-24 h
Method: as §6, §7

TNF-α = TNF-α inhibition assay, LPS-induced PBMCs / CD14+ monocytes (Meso Scale); details: 1 h pretreatment, 100 ng/mL LPS 18-24 h
Method: as §6, §7

IKAROS = target: T2, IKAROS (Homo sapiens, UniProt Q13422+Q96SW2); assay: IKAROS degradation assay (Western blot, MV-4-11 cells); details: MV4-11, 6-8 h
T2 construct: endogenous in cells; host or cells: MV-4-11
T2 sequence (Q13422 whole entry): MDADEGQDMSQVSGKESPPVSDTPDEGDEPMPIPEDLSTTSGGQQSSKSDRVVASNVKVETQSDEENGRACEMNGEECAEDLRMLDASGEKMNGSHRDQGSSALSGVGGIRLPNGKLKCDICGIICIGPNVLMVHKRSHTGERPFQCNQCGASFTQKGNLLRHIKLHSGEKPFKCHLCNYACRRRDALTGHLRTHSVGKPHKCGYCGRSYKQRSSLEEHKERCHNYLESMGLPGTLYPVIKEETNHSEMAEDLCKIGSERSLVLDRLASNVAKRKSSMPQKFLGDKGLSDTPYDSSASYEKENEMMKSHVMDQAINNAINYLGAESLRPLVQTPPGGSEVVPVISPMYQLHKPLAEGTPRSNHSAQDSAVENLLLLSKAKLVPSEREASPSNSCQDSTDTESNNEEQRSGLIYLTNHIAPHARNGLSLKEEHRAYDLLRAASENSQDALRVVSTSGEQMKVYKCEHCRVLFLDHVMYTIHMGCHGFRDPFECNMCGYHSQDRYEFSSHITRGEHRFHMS
T2 sequence (Q96SW2 whole entry): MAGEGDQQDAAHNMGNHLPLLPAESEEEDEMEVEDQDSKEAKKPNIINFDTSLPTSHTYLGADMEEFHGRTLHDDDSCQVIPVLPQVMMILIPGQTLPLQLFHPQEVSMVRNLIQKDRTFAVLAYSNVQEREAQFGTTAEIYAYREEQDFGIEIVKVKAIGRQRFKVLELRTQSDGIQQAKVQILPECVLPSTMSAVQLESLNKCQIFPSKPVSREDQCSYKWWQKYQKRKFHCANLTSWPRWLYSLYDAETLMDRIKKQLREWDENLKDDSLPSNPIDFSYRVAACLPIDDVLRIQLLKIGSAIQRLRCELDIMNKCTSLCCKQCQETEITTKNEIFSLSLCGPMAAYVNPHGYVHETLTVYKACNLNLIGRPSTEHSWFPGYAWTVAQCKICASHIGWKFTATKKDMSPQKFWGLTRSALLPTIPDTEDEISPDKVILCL
T2 sequence (Q16531 whole entry partner): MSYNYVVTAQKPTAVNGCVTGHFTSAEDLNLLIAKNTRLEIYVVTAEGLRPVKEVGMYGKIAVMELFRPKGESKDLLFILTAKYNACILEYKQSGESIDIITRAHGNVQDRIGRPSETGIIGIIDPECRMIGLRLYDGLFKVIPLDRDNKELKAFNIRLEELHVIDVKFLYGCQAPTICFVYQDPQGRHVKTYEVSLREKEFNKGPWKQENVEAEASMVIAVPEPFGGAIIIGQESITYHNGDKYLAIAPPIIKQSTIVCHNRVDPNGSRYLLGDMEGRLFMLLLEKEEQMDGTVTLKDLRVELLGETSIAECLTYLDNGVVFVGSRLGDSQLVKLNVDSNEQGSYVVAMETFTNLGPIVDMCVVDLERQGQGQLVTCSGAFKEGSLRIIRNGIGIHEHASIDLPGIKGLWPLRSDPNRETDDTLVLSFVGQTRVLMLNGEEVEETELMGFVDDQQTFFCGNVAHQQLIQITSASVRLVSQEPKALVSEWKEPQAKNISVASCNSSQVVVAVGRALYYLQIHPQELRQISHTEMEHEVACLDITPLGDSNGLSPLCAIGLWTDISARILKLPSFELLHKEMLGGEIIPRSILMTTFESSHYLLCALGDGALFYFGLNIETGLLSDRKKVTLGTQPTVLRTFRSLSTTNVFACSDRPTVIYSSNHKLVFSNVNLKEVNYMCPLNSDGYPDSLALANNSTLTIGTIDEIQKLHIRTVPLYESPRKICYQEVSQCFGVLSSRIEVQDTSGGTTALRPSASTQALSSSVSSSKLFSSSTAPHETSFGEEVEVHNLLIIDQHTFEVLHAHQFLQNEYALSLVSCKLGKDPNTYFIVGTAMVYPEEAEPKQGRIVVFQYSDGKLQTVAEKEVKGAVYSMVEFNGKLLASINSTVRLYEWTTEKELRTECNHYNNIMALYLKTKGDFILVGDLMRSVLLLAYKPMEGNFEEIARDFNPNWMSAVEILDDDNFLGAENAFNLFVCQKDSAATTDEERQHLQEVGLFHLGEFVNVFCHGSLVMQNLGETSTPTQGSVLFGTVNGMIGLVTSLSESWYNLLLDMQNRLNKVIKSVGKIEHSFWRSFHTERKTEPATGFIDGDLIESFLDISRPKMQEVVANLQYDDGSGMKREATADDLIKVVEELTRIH
Method: as §1, §2, §3, §4, §5

CDK9 = target: T3, CDK9 (Homo sapiens, UniProt P50750); assay: CDK9 degradation assay (Western blot, MV-4-11 cells); details: 6-8 h; for Dmax at 0.1 µM: MV4-11, 0.1 μM; for Dmax at 1 µM: MV4-11, 1 μM
T3 construct: Whole cell extracts were prepared using RIPA buffer; endogenous in cells; host or cells: MV-4-11
T3 sequence (P50750 whole entry): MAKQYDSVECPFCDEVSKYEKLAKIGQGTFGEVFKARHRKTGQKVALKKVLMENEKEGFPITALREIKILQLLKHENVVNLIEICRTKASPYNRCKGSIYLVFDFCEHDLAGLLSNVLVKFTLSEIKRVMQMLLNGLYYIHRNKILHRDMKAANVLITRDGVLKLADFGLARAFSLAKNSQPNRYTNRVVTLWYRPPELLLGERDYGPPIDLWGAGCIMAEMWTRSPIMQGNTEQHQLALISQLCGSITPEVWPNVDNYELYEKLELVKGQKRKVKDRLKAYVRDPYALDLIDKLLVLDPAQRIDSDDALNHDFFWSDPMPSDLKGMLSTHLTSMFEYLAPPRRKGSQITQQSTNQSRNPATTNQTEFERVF
Method: as §1, §2, §3, §4, §5

CDK16 = target: T4, CDK16 (Homo sapiens, UniProt Q00536); assay: CDK16 degradation assay (Western blot, MV-4-11 cells); details: 6-8 h; for Dmax at 0.1 µM: MV4-11, 0.1 μM; for Dmax at 1 µM: MV4-11, 1 μM
T4 construct: Whole cell extracts were prepared using RIPA buffer; endogenous in cells; host or cells: MV-4-11
T4 sequence (Q00536 whole entry): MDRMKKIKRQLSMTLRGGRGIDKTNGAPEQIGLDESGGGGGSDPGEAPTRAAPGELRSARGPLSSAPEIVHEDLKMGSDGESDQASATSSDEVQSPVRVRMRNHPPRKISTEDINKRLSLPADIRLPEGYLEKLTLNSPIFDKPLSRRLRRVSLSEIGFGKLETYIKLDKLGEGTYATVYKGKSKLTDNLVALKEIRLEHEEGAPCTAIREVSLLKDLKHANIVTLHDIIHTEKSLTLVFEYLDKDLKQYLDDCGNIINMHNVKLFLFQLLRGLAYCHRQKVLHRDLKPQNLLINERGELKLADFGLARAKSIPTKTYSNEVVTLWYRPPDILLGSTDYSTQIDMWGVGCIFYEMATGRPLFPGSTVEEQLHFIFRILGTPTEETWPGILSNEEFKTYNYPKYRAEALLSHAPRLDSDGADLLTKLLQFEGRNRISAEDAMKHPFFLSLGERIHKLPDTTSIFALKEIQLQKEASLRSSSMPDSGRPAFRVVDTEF
Method: as §1, §2, §3, §4, §5

T1 sequence (P15170 whole entry): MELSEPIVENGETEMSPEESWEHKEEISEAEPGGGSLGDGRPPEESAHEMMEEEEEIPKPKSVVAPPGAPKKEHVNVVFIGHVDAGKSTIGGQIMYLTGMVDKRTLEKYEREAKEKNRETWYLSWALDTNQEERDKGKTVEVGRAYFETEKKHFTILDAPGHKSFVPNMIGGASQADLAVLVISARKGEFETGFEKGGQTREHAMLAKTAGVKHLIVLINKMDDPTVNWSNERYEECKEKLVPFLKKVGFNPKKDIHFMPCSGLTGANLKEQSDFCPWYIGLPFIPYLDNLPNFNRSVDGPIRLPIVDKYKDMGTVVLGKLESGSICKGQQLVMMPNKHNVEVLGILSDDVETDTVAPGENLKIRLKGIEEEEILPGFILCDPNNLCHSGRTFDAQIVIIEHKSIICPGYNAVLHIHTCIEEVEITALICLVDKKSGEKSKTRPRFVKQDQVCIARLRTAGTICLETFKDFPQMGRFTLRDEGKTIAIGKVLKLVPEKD
T1 sequence (Q96SW2 whole entry): as the sequence (Q96SW2 whole entry) above
T1 sequence (Q16531 whole entry partner): as the sequence (Q16531 whole entry partner) above

Dmax at 1 µM (GSPT1) [%]	Dmax at 1 µM (IKAROS) [%]	Dmax at 0.1 µM (CDK9) [%]	Dmax at 1 µM (CDK9) [%]	Dmax at 0.1 µM (CDK16) [%]	Dmax at 1 µM (CDK16) [%]	SMILES	viability at 1 µM (MOLM-13 cells) [%]	inhibition at 1 µM (IL-1β) [%]	inhibition at 1 µM (IL-6) [%]	inhibition at 1 µM (TNF-α) [%]
25 to 50	–	–	–	–	–	Cn1ncc(-c2nc(NC3CCC(NC(=O)CCCCCCNC(=O)NCc4scc5c4CN(C4CCC(=O)NC4=O)C5=O)CC3)ncc2Cl)c1CC1CC1 (centres unmarked) [Compound 4, 3-[2-({3-[7-(4-{5-Chloro-4-[5-(cyclopropylmethyl)-1-methyl-1H-pyrazol-4-yl]-2-pyrimidinylamino}cyclohexylamino)-7-oxoheptyl]ureido}methyl)-6-oxo-3-thia-7-azabicyclo[3.3.0]octa-1,4-dien-7-yl]-2,6-piperidinedione]	> 90	–	–	–
–	–	–	–	–	–	Cn1ncc(-c2nc(N[C@H]3CC[C@H](NC(=O)CCCCCCNC(=O)NCc4cc5c(s4)C(=O)N(C4CCC(=O)NC4=O)C5)CC3)ncc2Cl)c1CC1CC1 (some centres unmarked) [Compound 5, N-((1r,4r)-4-((5-chloro-4-(5-(cyclopropylmethyl)-1-methyl-1H-pyrazol-4-yl)pyrimidin-2-yl)amino)cyclohexyl)-7-(3-((5-(2,6-dioxopiperidin-3-yl)-6-oxo-5,6-dihydro-4H-thieno[2,3-c]pyrrol-2-yl)methyl)ureido)heptanamide]	> 90	> 90	> 90	70 to 90
–	50 to 75	–	–	–	–	CC(C)(C)c1cnc(CSc2cnc(NC(=O)C3CCN(CC(=O)NCCOCCOCCOCCNc4cccc5c4C(=O)N(C4CCC(=O)NC4=O)C5=O)CC3)s2)o1 (centres unmarked) [Compound 10, N-(5-(((5-(tert-butyl)oxazol-2-yl)methyl)thio)thiazol-2-yl)-1-(14-((2-(2,6-dioxopiperidin-3-yl)-1,3-dioxoisoindolin-4-yl)amino)-2-oxo-6,9,12-trioxa-3-azatetradecyl)piperidine-4-carboxamide]	–	–	–	–
–	–	–	–	–	–	CC(C)(C)c1cnc(CSc2cnc(NC(=O)C3CCN(CCOCCOCCNC(=O)NCc4cc5c(s4)C(=O)N(C4CCC(=O)NC4=O)C5)CC3)s2)o1 (centres unmarked) [Compound 19, N-(5-(((5-(tert-butyl)oxazol-2-yl)methyl)thio)thiazol-2-yl)-1-(1-(5-(2,6-dioxopiperidin-3-yl)-6-oxo-5,6-dihydro-4H-thieno[2,3-c]pyrrol-2-yl)-3-oxo-7,10-dioxa-2,4-diazadodecan-12-yl)piperidine-4-carboxamide]	70 to 90	> 90	> 90	70 to 90
–	50 to 75	–	–	–	–	CC(C)(C)c1cnc(CSc2cnc(NC(=O)C3CCN(CCCCCCCCNC(=O)NCc4cc5c(s4)C(=O)N(C4CCC(=O)NC4=O)C5)CC3)s2)o1 (centres unmarked) [Compound 20, N-(5-(((5-(tert-butyl)oxazol-2-yl)methyl)thio)thiazol-2-yl)-1-(8-(3-((5-(2,6-dioxopiperidin-3-yl)-6-oxo-5,6-dihydro-4H-thieno[2,3-c]pyrrol-2-yl)methyl)ureido)octyl)piperidine-4-carboxamide]	> 90	–	–	–
–	25 to 50	50 to 75	≥ 75	50 to 75	≥ 75	Cn1ncc(-c2nc(N[C@H]3CC[C@H](NCCCCCCNC(=O)NCc4cc5c(s4)C(=O)N(C4CCC(=O)NC4=O)C5)CC3)ncc2Cl)c1CC1CC1 (some centres unmarked) [Compound 24, 1-(6-(((1r,4r)-4-((5-chloro-4-(5-(cyclopropylmethyl)-1-methyl-1H-pyrazol-4-yl)pyrimidin-2-yl)amino)cyclohexyl)amino)hexyl)-3-((5-(2,6-dioxopiperidin-3-yl)-6-oxo-5,6-dihydro-4H-thieno[2,3-c]pyrrol-2-yl)methyl)urea]	> 90	–	–	–
–	25 to 50	50 to 75	50 to 75	–	50 to 75	Cn1ncc(-c2nc(N[C@H]3CC[C@H](NCC(=O)NCCCCCNCC(=O)NCc4cc5c(s4)C(=O)N(C4CCC(=O)NC4=O)C5)CC3)ncc2F)c1CC1CC1 (some centres unmarked) [Compound 25, 2-(((1r,4r)-4-((4-(5-(cyclopropylmethyl)-1-methyl-1H-pyrazol-4-yl)-5-fluoropyrimidin-2-yl)amino)cyclohexyl)amino)-N-(5-((2-(((5-(2,6-dioxopiperidin-3-yl)-6-oxo-5,6-dihydro-4H-thieno[2,3-c]pyrrol-2-yl)methyl)amino)-2-oxoethyl)amino)pentyl)acetamide]	> 90	–	–	–
–	25 to 50	–	–	–	–	CC(C)(C)c1cnc(CSc2cnc(NC(=O)C3CCN(CC(=O)NCCCCCNC(=O)NCc4cc5c(s4)C(=O)N(C4CCC(=O)NC4=O)C5=O)CC3)s2)o1 (centres unmarked) [Compound 27, N-(5-(((5-(tert-butyl)oxazol-2-yl)methyl)thio)thiazol-2-yl)-1-(2-((5-(3-((5-(2,6-dioxopiperidin-3-yl)-4,6-dioxo-5,6-dihydro-4H-thieno[2,3-c]pyrrol-2-yl)methyl)ureido)pentyl)amino)-2-oxoethyl)piperidine-4-carboxamide]	> 90	–	–	–
–	–	< 25	25 to 50	< 25	25 to 50	Cn1ncc(-c2nc(N[C@H]3CC[C@H](NCC(=O)NCCCCNCC(=O)NCc4cc5c(s4)C(=O)N(C4CCC(=O)NC4=O)C5=O)CC3)ncc2Cl)c1CC1CC1 (some centres unmarked) [Compound 36, 2-(((1r,4r)-4-((5-chloro-4-(5-(cyclopropylmethyl)-1-methyl-1H-pyrazol-4-yl)pyrimidin-2-yl)amino)cyclohexyl)amino)-N-(4-((2-(((5-(2,6-dioxopiperidin-3-yl)-4,6-dioxo-5,6-dihydro-4H-thieno[2,3-c]pyrrol-2-yl)methyl)amino)-2-oxoethyl)amino)butyl)acetamide]	50 to 70	70 to 90	70 to 90	70 to 90
–	–	–	–	–	–	CN(CCNCC(=O)NCc1scc2c1CN(C1CCC(=O)NC1=O)C2=O)CCNC(=O)CN1CCC(C(=O)Nc2ncc(SCc3ncc(C(C)(C)C)o3)s2)CC1 (centres unmarked) [Compound 44, N-(5-(((5-(tert-butyl)oxazol-2-yl)methyl)thio)thiazol-2-yl)-1-(1-(5-(2,6-dioxopiperidin-3-yl)-4-oxo-5,6-dihydro-4H-thieno[3,4-c]pyrrol-1-yl)-8-methyl-3,12-dioxo-2,5,8,11-tetraazatridecan-13-yl)piperidine-4-carboxamide]	50 to 70	50 to 70	< 50	50 to 70
